In patent US12404260B2, “Pyridine rings containing derivatives as MALT1 inhibitors” (Janssen Pharmaceutica NV, priority 2019, dated 2025):

Tested on: secretion of IL6 by OCI-LY3 ABC-DLBCL cells
Test: Human IL6 Mesoscale assay (OCI-LY3)
Assay type: cell-based
Settings: 24 h incubation, IL6 in supernatant
Method: (§1) NFKB signaling regulates the secretion of multiple cytokines, including IL6 and IL10. Secretion of the cytokines IL6 and IL10 by OCI-LY3 ABC-DLBCL cells was measured using a mesoscale assay. Inhibition of NFKB signaling by MALT1 inhibitors results in a decrease of IL6/10 secretion.
(§2) OCI-LY3 cells were propagated in RPMI-1640 (Sigma Aldrich) supplemented with 10% fetal bovine serum (HyClone), 1 mM sodium pyruvate (Invitrogen), 2 mM L-glutamine (Sigma Aldrich) and 1% PenStrep (Sigma Aldrich). Cell passage number should not exceed 30. Cells should be kept between 0.5-2.5 million cells per mL during culturing and cells should be supplemented every 2-3 days with fresh 50 μM beta-mercaptoethanol. No beta-mercaptoethanol was used during the mesoscale assay.
(§3) For the Mesoscale assay, 100,000 OCI-LY3 cells were seeded per well into black-colored 96-well plates with clear bottom (Corning #3904) and test compounds were added in 9 dilution steps (1:2) ranging from 15 μM to 58.6 nM (final DMSO concentration 0.3%). DMSO control wells were used to determine the maximum signal (High Control (HC)). Treatment with the BTK inhibitor RN486 in a dose range from 30 nM to […] (9 dilutions of 1:2) served as a positive control for NFKB pathway inhibition and was used to determine the maximum inhibition (Low Control (LC)). Compounds and cells were incubated for 24 h at 37° C. and 5% CO2 (assay volume is 150 μL). After 24 h of incubation 50 μL of the supernatant was transferred to a MSD plate (V-Plex Proinflammation Panel 1 (human) kit, Mesoscale (MSD)) and incubated for 2 h with vigorous shaking (600 rpm) at room temperature. Following incubation, plates were washed 3× with PBS+0.05% Tween-20 and 25 μL detection antibody solution (IL6 & IL10 antibodies in diluent 3 (MSD)) was added per well followed by 2 h of incubation with vigorous shaking (600 rpm) at room temperature. After 3× washes with PBS+0.05% Tween-20, plates were incubated with 150 μL 2× Read Buffer T and read on SECTOR imager.

SMILES	IC50
CO[C@@H](C)c1c(NC(=O)Nc2cnc(-n3nccn3)c(C#N)c2)cnc(C)c1Br [Co. 92]	3020 nM
COc1cncc(NC(=O)Nc2cnc(-n3nccn3)c(C(F)(F)F)c2)c1[C@H](C)OC [Co. 125]	4570 nM
CO[C@H](C)c1c(NC(=O)Nc2cnc(C3CC3)c(Cl)c2)cnc(C)c1Br [Co. 55]	580 nM
CO[C@H](C)c1c(NC(=O)Nc2cnc(-n3nccn3)c(C(F)(F)F)c2)cnc(C)c1Br [Co. 58]	760 nM
CO[C@H](C)c1c(NC(=O)Nc2ccnc(C(F)(F)F)c2)cnc(C)c1Cl [Co. 64]	680 nM

The next compounds have a lower IC50 than those just listed; values first:

IC50	SMILES
240 nM	CO[C@@H](C)c1c(NC(=O)Nc2cnc(-n3nccn3)c(C(F)(F)F)c2)cnc(C)c1C#N [Co. 101]
90 nM	CO[C@H](C)c1c(NC(=O)Nc2cnc(-n3nccn3)c(Cl)c2)cnc(N)c1Br [Co. 119]
220 nM	COC(C)c1c(C#N)cncc1NC(=O)Nc1cnc(-n2nccn2)c(Cl)c1 (stereo not drawn) [Co. 25]
230 nM	CO[C@@H](C)c1c(NC(=O)Nc2cnc(-n3ncc([C@@H](C)O)n3)c(Cl)c2)cnc(C)c1C#N [Co. 115]

Biological target: T1, full-length MALT1 protein (Strep-MALT1(1-824)-His) (Homo sapiens, UniProt Q9UDY8)
T1 construct: full-length MALT1 protein (Strep-MALT1(1-824)-His) purified from baculovirus-infected insect cells; Strep (N); His (C); made in house; host or cells: baculovirus-infected insect cells
T1 sequence (Q9UDY8 1-824): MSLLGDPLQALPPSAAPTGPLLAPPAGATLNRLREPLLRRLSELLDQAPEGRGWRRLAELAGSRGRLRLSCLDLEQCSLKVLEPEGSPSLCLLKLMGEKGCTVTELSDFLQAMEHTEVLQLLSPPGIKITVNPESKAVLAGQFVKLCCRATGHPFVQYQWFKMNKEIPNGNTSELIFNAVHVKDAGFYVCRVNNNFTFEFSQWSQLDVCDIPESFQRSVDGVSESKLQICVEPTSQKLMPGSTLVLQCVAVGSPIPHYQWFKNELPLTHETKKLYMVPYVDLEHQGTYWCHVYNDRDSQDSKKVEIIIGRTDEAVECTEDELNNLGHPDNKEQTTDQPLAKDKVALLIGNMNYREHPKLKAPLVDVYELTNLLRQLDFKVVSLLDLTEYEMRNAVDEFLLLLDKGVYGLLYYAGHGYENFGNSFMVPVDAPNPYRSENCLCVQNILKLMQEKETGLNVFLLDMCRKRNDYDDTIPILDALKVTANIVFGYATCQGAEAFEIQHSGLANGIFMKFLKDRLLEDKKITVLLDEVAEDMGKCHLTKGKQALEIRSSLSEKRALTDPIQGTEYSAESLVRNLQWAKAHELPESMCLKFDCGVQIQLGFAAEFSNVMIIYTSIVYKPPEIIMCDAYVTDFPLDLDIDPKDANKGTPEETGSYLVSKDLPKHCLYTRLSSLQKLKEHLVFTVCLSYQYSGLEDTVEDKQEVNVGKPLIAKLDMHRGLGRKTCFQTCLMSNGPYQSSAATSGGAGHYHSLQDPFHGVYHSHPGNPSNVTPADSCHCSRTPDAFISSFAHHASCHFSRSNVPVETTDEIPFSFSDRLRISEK
Test: MALT1 Biochemical Protease Assay
Settings: 10 nM FL MALT1, 200 μM Ac-LRSR-AMC, 50 min pre-incubation, 4 h at RT; read-out: MALT1_Biochemical activity (Ac-LRSR-amc) IC50
Method: MALT1 protease activity was assessed in an in vitro assay using a tetrapeptide as substrate and full-length MALT1 protein (Strep-MALT1(1-824)-His) purified from baculovirus-infected insect cells. The tetrapeptide LRSR is coupled to AMC (7-amino-4-methylcoumarin) and provides a quenched, fluorescent substrate for the MALT1 protease (SM Biochemicals). Cleavage of AMC from the Arginine residue results in an increase in coumarin fluorescence measured at 460 nm (excitation 355 nm). The final assay buffer consisted of 10 nM FL MALT1 protein, 200 μM Ac-LRSR-AMC, 50 mM Tris pH 7.5, 0.6 M Citrate, 1 mM DTT, 1 mM EDTA, 0.05% BSA and 1.5% DMSO. Test compounds were spotted at 50 nL in 100% DMSO per well of a black 384-Proxiplate (Perkin Elmer). Test compound concentrations ranged from 30 μM to 0.5 nM using 11 dilution steps (1:3). Background signal was measured from control wells containing assay buffer without enzyme which functions as low control (LC). High control (HC) values were generated using the reaction with enzyme but no compound treatment. Compounds were pre-incubated with MALT1 enzyme for 50 minutes at RT. Substrate was added subsequently and fluorescence was measured in Labsystems fluoroskan at excitation 355 nm and emission 460 nm to determine time 0. The reaction was subsequently incubated for 4 h at RT and fluorescence was measured. For IC50 calculations, timepoint 0 was subtracted from the 4 h timepoint to correct for any potential autofluorescence of the compounds. The enzyme reaction was linear during the 4 h incubation period. Characterization of the substrate Ac-LRSR-AMC determined the Michaelis constant KM at 200 μM.
IC50 values were calculated using the following formula (Z prime should be >0.5): […]
A best-fit curve was fitted by a minimum sum of squares method to the plot of % Controlmin vs. compound concentration. From this an IC50 value (inhibitory concentration causing 50% inhibition) can be obtained. An estimate of the slope of the plot in terms of the Hill coefficient was also obtained.
Used in “Lexis Dose Response Curve Fitting” Version 1.0.

SMILES	IC50
CO[C@@H](C)c1c(NC(=O)Nc2cnc(-n3nccn3)c(C#N)c2)cnc(C)c1Br [Co. 92]	690 nM
COc1cncc(NC(=O)Nc2cnc(-n3nccn3)c(C(F)(F)F)c2)c1[C@H](C)OC [Co. 125]	1450 nM
CO[C@H](C)c1c(NC(=O)Nc2cnc(C3CC3)c(Cl)c2)cnc(C)c1Br [Co. 55]	110 nM
CO[C@H](C)c1c(NC(=O)Nc2cnc(-n3nccn3)c(C(F)(F)F)c2)cnc(C)c1Br [Co. 58]	200 nM
CO[C@H](C)c1c(NC(=O)Nc2ccnc(C(F)(F)F)c2)cnc(C)c1Cl [Co. 64]	170 nM

Results, then the compound that gave them:

IC50	SMILES
210 nM	CO[C@@H](C)c1c(NC(=O)Nc2cnc(-n3nccn3)c(C(F)(F)F)c2)cnc(C)c1C#N [Co. 101]
20 nM	CO[C@H](C)c1c(NC(=O)Nc2cnc(-n3nccn3)c(Cl)c2)cnc(N)c1Br [Co. 119]
240 nM	COC(C)c1c(C#N)cncc1NC(=O)Nc1cnc(-n2nccn2)c(Cl)c1 (stereo not drawn) [Co. 25]
60 nM	CO[C@@H](C)c1c(NC(=O)Nc2cnc(-n3ncc([C@@H](C)O)n3)c(Cl)c2)cnc(C)c1C#N [Co. 115]

Tested on: secretion of IL10 by OCI-LY3 ABC-DLBCL cells
Test: Human IL10 Mesoscale assay (OCI-LY3)
Assay type: cell-based
Settings: 24 h incubation, IL10 in supernatant
Method: as §1, §2, §3

SMILES	IC50
CO[C@@H](C)c1c(NC(=O)Nc2cnc(-n3nccn3)c(C#N)c2)cnc(C)c1Br [Co. 92]	1510 nM
COc1cncc(NC(=O)Nc2cnc(-n3nccn3)c(C(F)(F)F)c2)c1[C@H](C)OC [Co. 125]	2240 nM
CO[C@H](C)c1c(NC(=O)Nc2cnc(C3CC3)c(Cl)c2)cnc(C)c1Br [Co. 55]	210 nM
CO[C@H](C)c1c(NC(=O)Nc2cnc(-n3nccn3)c(C(F)(F)F)c2)cnc(C)c1Br [Co. 58]	300 nM
CO[C@H](C)c1c(NC(=O)Nc2ccnc(C(F)(F)F)c2)cnc(C)c1Cl [Co. 64]	190 nM

Results, then the compound that gave them:

IC50	SMILES
150 nM	CO[C@@H](C)c1c(NC(=O)Nc2cnc(-n3nccn3)c(C(F)(F)F)c2)cnc(C)c1C#N [Co. 101]
50 nM	CO[C@H](C)c1c(NC(=O)Nc2cnc(-n3nccn3)c(Cl)c2)cnc(N)c1Br [Co. 119]
180 nM	COC(C)c1c(C#N)cncc1NC(=O)Nc1cnc(-n2nccn2)c(Cl)c1 (stereo not drawn) [Co. 25]
100 nM	CO[C@@H](C)c1c(NC(=O)Nc2cnc(-n3ncc([C@@H](C)O)n3)c(Cl)c2)cnc(C)c1C#N [Co. 115]
